# Experimental data as given in patent publication USRE47885E1, “Use of cannabidiol prodrugs in pharmaceutical compositions” (Zynerba Pharmaceuticals, Inc., priority 2009, dated 2020).
# Columns and labels:
# [1] = Chemical stability of ALL00179 in 100% ddH2O donor solution; assay type: physicochemical; conditions: for purity level after 72 hr: ALL00179 after 72 hr in ddH7O at RT; for initial purity (composition of ALL00179 sample): ALL00179 for 100% ddH2O donor solution
# Description: ALL00179 was placed in 100% ddH2O donor solution to check chemical stability. The initial purity of ALL00179 was 94.7% ALL00179, 5.3% ALL00180, and 0% CBD. After 72 hr in ddH7O at RT, the purity level was determined to be 86.8% ALL00179, 13.2% ALL00180 and 0% CBD.
# [2] = assay type: in vitro ADME; conditions: ALL00179 added to human plasma; for Percent Prodrug and CBD at time (min) 0*: 0 min (approximately 1 minute of mixing and withdrawal); for Percent Prodrug and CBD at time (min) 5: 5 min; for Percent Prodrug and CBD at time (min) 10: 10 min; for Percent Prodrug and CBD at time (min) 20: 20 min; for Percent Prodrug and CBD at time (min) 30: 30 min; for Percent Prodrug and CBD at time (min) 60: 60 min; for Percent Prodrug and CBD at time (min) 120: 120 min
# Description: Stability of the prodrug in human plasma was performed to monitor the conversion of ALL00179 to the monosubstituted form, ALL00180, and CBD. The molecular structure of ALL00180 and CBD are shown below: […]
# [3] = In vitro diffusion study through microneedle-treated full thickness Yucatan pig skin (flow-through diffusion cell); assay type: in vitro ADME; conditions: ALL00179 100% ddH2O donor solution, end of 48 h diffusion study
# Source text: The purpose of the diffusion study was to determine whether microneedle (MN) treated skin would allow the rapid permeation of a water-soluble prodrug of CBD (ALL00179) compared to CBD.
# Briefly, full thickness Yucatan pig (YP) skin was used to perform the microneedle studies. The average thickness of the YP skin was approximately 1.0±0.1 mm. A PermeGear flow-through (In-Line, Hellertown, Pa.) diffusion cell system was used for the skin permeation studies. One hundred microneedle insertions were made into the skin before mounting in the flow-through diffusion cell by treating the skin 20 times with an array containing 5 microneedles. Each cell was charged with 250 μl of either 318 mM CBD (n=4) or ALL00179 (n=5) and occluded with rubber stoppers. Ten percent ethanol in water was used as a receiver solution. Samples were collected at six-hour intervals for a total of 48 hours. (See FIG. 1 for the permeation profile.)
# [4] = Previous studies: permeation through intact skin (non-MN treated, 100% ddH2O donor solution); assay type: in vitro ADME
# Description: Likewise, short lag times were observed throughout the study for the ALL00179-treated skin. […] In this study, the total amount of CBD delivered from a 25 mg ALL00179-containing donor solution was 0.2±0.1 mg total CBD equivalents in the skin and 1.0±0.2 mg total CBD equivalents in the receiver solution after 48 hr. This accounts for approximately 4.8% of the total ALL00179 in the donor solution.
# [5] = Permeation from an optimized gel system of cannabidiol through intact dermatomed human skin; assay type: in vitro ADME; conditions: optimized gel system of cannabidiol (2.5% w/w), dosed every 12 hr
# Source text: As a comparison, permeation from an optimized gel system of cannabidiol (2.5% w/w) through intact dermatomed human skin, dosed every 12 hr, gave a flux of 5.2 nmol/cm^2/h. The total CBD flux from ALLL00179 after MN treatment of full thickness Yucatan pig skin was 63.2±11.4 nmol/cm^2/h, resulting in a 12.2 fold enhancement of flux.
# [6] = cited from earlier work
# [7] = used in conjunction with microneedles
Compound,purity level after 72 hr [1] [%],initial purity (composition of ALL00179 sample) [1] [%],Percent Prodrug and CBD at time (min) 0* [2] [%],Percent Prodrug and CBD at time (min) 5 [2] [%],Percent Prodrug and CBD at time (min) 10 [2] [%],Percent Prodrug and CBD at time (min) 20 [2] [%],Percent Prodrug and CBD at time (min) 30 [2] [%],Percent Prodrug and CBD at time (min) 60 [2] [%],Percent Prodrug and CBD at time (min) 120 [2] [%],composition of the donor solutions at the end of the study [3] [%],flux through intact skin [4],drug detected in the skin [4],flux [5] [nmol/cm^2/h],"naltrexone levels ([6]; 16% naltrexone hydrochloride gel, 6 healthy human volunteers, microneedle pretreatment) [ng/mL]","duration of steady state naltrexone concentrations [6, 7] [h]","time to steady state naltrexone concentrations [6, 7]"
C=C(C)[C@@H]1CCC(C)=C[C@H]1c1c(O)cc(CCCCC)cc1OC(=O)C[N+](C)(C)C [ALL00180],13.2,5.3,86.1,66.8,44.9,22.9,10.6,2.4,0.0,15.7±2.6,–,–,–,–,–,–
C=C(C)[C@@H]1CCC(C)=C[C@H]1c1c(OC(=O)C[N+](C)(C)C)cc(CCCCC)cc1OC(=O)C[N+](C)(C)C.[Cl-].[Cl-] [ALL00179],86.8,94.7,9.2,3.0,0.0,0.0,0.0,0.0,0.0,84.3±2.6,no flux,–,–,–,–,–
C=C(C)[C@@H]1CCC(C)=C[C@H]1c1c(O)cc(CCCCC)cc1O [Cannabidiol],0,0,4.7,30.2,55.1,77.1,89.4,97.6,100,0,no flux,none,5.2,–,–,–
O=C1CC[C@@]2(O)[C@H]3Cc4ccc(O)c5c4[C@@]2(CCN3CC2CC2)[C@H]1O5 [naltrexone],–,–,–,–,–,–,–,–,–,–,–,–,–,2.5 ± 1.1,48,within two hours
